Assay results from US9801738B2, “Liquid cast biodegradable arterial stent” (Northwestern University, priority 2010, dated 2017).

Assays:
[1] = cited from earlier work
neointimal hyperplasia = experiment: rat carotid artery injury model, inhibition of neointimal hyperplasia by NO donors; assay type: in vivo
Protocol: Using the standard rat carotid artery injury model, the efficacy of two different diazeniumdiolates with markedly different half-lives at inhibiting neointimal hyperplasia were evaluated. […] The two different NO donors investigated were: 1-[2-(carboxylato)pyrrolidin-1-yl]diazen-1-ium-1,2-diolate (PROLI/NO), a short half-life donor, and diazeniumdiolated poly(acrylonitrile) (PAN/NO), a long half-life donor.
To date, it remains unknown how much NO is required in the vasculature to inhibit the subsequent neointimal hyperplasia from developing in humans. In order to estimate how much NO is required in the vasculature to inhibit the subsequent neointimal hyperplasia from developing in humans, the observed NO release may be compared to: 1) data from animal experiments, and 2) known endogenous NO production in humans. […] Because diazeniumdiolates release 2 moles of NO per mole of compound upon reaction with hydrogen ions, it follows that 20 mg of PROLI/NO releases 160 μmoles of NO. Thus, the current formulation that releases 112 μmole/gm (FIG. 10) is similar to what has been used in rat models. An alternative method of estimating whether the current NO-releasing material will produce sufficient NO is to compare the material against known rates of endogenous NO release. […]

## NCCN(CCN)/[N+]([O-])=N/O [DETA/NO]
[1]
  half-life: 20 h

## O=C(O)C1CCCN1[N+]([O-])=NO (stereo not drawn) [PROLI/NO, 1-[2-(carboxylato)pyrrolidin-1-yl]diazen-1-ium-1,2-diolate]
Neointimal hyperplasia; applied to the periadventitial aspect of an injured artery, 20 mg in rodents
  inhibition of neointimal hyperplasia: 91%
Neointimal hyperplasia; two weeks after injury, rat carotid artery injury model, p<0.05
  inhibition of intimal area versus injury alone: 91.2%
